Patent US20220184015A1, “COMPOSITIONS AND METHODS TO POTENTIATE MUSCULOSKELETAL EFFECT OF ONE OR MORE ANABOLIC AMINO ACIDS ON BONE HEALTH” (SOCIETE DES PRODUITS NESTLE S.A., priority 2019, published 2022)

Key:
Type in all cases: in vivo
[1] = test system: LC3 protein fused to ZsGreen under the control of a skeletal muscle specific promoter; assay: zebrafish autophagy reporter, number of LC3 punctae in larvae; settings: for autophagy activation by individual amino acids (FIG. 1) / autophagy activation by individual amino acids (FIG. 3) / autophagy activation by individual amino acids (FIG. 2): zebrafish larvae, 0.25 to 10 mM, 16 hours of treatment; for effect on basal autophagy: summary statement referring to the experimental data
Text: Z stack images were captured for each larva and maximal projection images were produced. Number of LC3 punctae have been calculated with MetaXpress software (Moleculare Devices) and normalized by fish area.

bone stiffness = bone stiffness (bone strength) in old mice after 3 months; settings: old mice (78 weeks old), thymol by gavage, AA mix in water, FIG. 6b
Text: (§1) Assessment of the long term (3 months) effect of thymol (an exemplary autophagy-inducing agent) and an amino acid mix, known as autophagy inducers, alone or in combination, on muscle function in old mice. […] Old mice (78 weeks old; n=12/group; inventions) were taking 1) thymol (compound 1); 2) an amino acid (AA) mix and thymol (compounds 2 and 1); or 3) the AA mix (compound 2). In the experiments, thymol was given by gavage; the AA mix was given in water; and alanine for isonitrogenous was given as a control to young mice (Adult). Old untreated mice were also used as another control (old untreated). The AA mix comprises 28.67% of Leucine, 14.29% of Isoleucine, 14.29% of Valine, 12.21% of Proline, 12.21% of Glycine, 14.84% of Lysine and 3.48% of Cysteine (See Table 1).

bone mineral density = bone mineral density in old mice after 3 months; settings: old mice (78 weeks old), thymol by gavage, AA mix in water, FIG. 6a
Text: as §1

Row | SMILES | autophagy activation by individual amino acids (FIG. 1) [1] | effect on basal autophagy [1] | autophagy activation by individual amino acids (FIG. 2) [1] | also measured
1 | N[C@@H](Cc1ccc(O)cc1)C(=O)O [Tyrosine] | show at least some autophagy activation effects | – | – | –
2 | N=C(N)NCCC[C@H](N)C(=O)O [Arginine] | show at least some autophagy activation effects | reduce basal autophagy | – | autophagy activation by individual amino acids (FIG. 3) [1]: shows less autophagy activation effects
3 | CC(C)[C@H](N)C(=O)O [Valine] | show at least some autophagy activation effects | – | show autophagy activation effects | –
4 | Cc1ccc(C(C)C)c(O)c1 [thymol] | – | – | – | increase in bone stiffness as compared with the control of the old untreated (bone stiffness): 12%; increase in bone mineral density as compared with the control of the old untreated (bone mineral density): 1.6%
5 | CC[C@H](C)[C@H](N)C(=O)O [Isoleucine] | – | reduce basal autophagy | – | –
6 | O=C(O)[C@@H]1CCCN1 [Proline] | show at least some autophagy activation effects | – | – | autophagy activation by individual amino acids (FIG. 3) [1]: show clear autophagy activation effects
7 | N[C@@H](Cc1ccccc1)C(=O)O [Phenylalanine] | show at least some autophagy activation effects | – | – | –
8 | NC(=O)C[C@H](N)C(=O)O [Asparagine] | show at least some autophagy activation effects | – | – | –
9 | NCC(=O)O [Glycine] | show at least some autophagy activation effects | – | show autophagy activation effects | –
10 | N[C@@H](CS)C(=O)O [Cysteine] | show at least some autophagy activation effects | – | show autophagy activation effects | –
11 | CC(C)C[C@H](N)C(=O)O [Leucine] | – | reduce basal autophagy | does not show any autophagy activation effect | –
12 | N[C@@H](CCC(=O)O)C(=O)O [Glutamate] | show at least some autophagy activation effects | – | – | autophagy activation by individual amino acids (FIG. 3) [1]: show clear autophagy activation effects
13 | NC(=O)CC[C@H](N)C(=O)O [Glutamine] | – | reduce basal autophagy | – | –
